Each structure is given as a SMILES string. Entries after “also recorded” stand apart in the source; their conditions may differ. Peptide text beside a SMILES is read from it. * marks the point of attachment. Cbz = O=C(OCc1ccccc1)*; CH2F = FC* Bounds are passed on as bounds.

Common to all, as to type: in vivo
The test system of experiment [1] is CC10-rtTA-IFN-γ mice. The experiment can be described thus: IFN-γ-induced emphysema (lung volume, chord length, alveolar histology, compliance) in transgenic mice. Particulars: transgene (+) mice on dox, treated vs vehicle control. The source says: (§1) CC10-rtTA-IFN-γ mice that had been generated in our laboratory and bred for at least 10 generations onto a Balb/c background were used in these studies. These are dual transgene positive animals in which the reverse tetracycline transactivator (rtTA) drives the expression of the murine IFN-γ gene in a lung-specific and externally regulatable fashion. The transgene in these mice is activated by adding doxycycline (dox) to the animal's drinking water. These mice were maintained as dual transgene (+) heterozygotes (refered to as transgene (+) hereafter).
(§2) CC10-rtTA-IFN-γ mice and littermate controls were maintained on normal water until they were 4-6 weeks old.
(§3) Animals were sacrificed via cervical dislocation, a median stemotomy was performed, and right heart perfusion was accomplished with calcium- and magnesium-free PBS to clear the pulmonary intravascular space. The lungs were then fixed to pressure (25 cm) with neutral buffered 10% formalin, fixed overnight in 10% formalin, embedded in paraffm, sectioned at 5 μm and stained. Hematoxylin and eosin (H&E) stains were performed in the Research Histology Laboratory of the Department of Pathology at Yale University School of Medicine.
In brief, the trachea was cannulated, the lungs were degassed and the lungs and heart were removed en bloc and inflated with PBS at 25 cm of pressure. The size of the lung was evaluated via volume displacement. Compliance was calculated as the change in volume divided by the change in pressure.

Experiment [2] has as its system cathepsins B, S, and H and MMPs-2, 9, 12 and 14. The experiment can be described thus: Lung mRNA encoding cathepsins and MMPs (RT-PCR, real-time RT-PCR). Conditions: transgene (+) mice on dox for 2 weeks. For orientation: Quantitative PCR measures a nucleic acid by following its amplification.
Experiment [3] has as its system CC10-rtTA-IFN-γ mice. The experiment can be described thus: IFN-γ-induced BAL cell recovery and tissue inflammation. Particulars: transgene (+) mice on dox for 2 weeks. On the procedure: Mice were euthanized, the trachea was isolated by blunt dissection, and tubing was secured in the airway. Two volumes of 1 mL of PBS with 0.1% BSA were then instilled and gently aspirated and pooled. Each BAL fluid sample was centriged, and the supernatants were stored in −70° C. until used. The levels of IFN-γ were determined using a commercial ELISA (R&D Systems Inc., Minneapolis, Minn., USA) as per the manufacturer's instructions.
as §3

Another experiment concerns IFN-γ-induced apoptosis. The experiment can be described thus: TUNEL evaluation of IFN-γ-induced lung cell apoptosis in transgenic mice. Conditions: transgene (+) mice on dox; for effect on IFN-γ-induced apoptosis (in words): treated vs vehicle control, 14150 10 mg/kg/day by gavage, CA074 10 mg/Kg/day I.P., leupeptin 15 mg/kg I.P.
From the text: as §1, §2
End labeling of exposed 3′-OH ends of DNA fragments in paraffin embedded tissue was undertaken with the TUNEL in situ cell death detection kit AP (Roche Diagnostics, CA, USA) using the instructions provided by the manufacturer. After staining, 20 fields of alveoli were randomly chosen and 2000 nuclei were counted. The labeled cells were expressed as percentage of total nuclei.

For `COC(=O)C[C@H](NC(=O)[C@H](C)NC(=O)[C@@H](NC(=O)OCc1ccccc1)C(C)C)C(=O)CF` [Z-VAD-fmk] (Cbz-Val-Ala-Asp(OMe)-CH2F), the “effect on IFN-γ-induced emphysema (lung volume, chord length, histology, compliance; in words)” value with CC10-rtTA-IFN-γ mice [1] is recorded as “decreased the emphysema generating effects of IFN-γ; also recorded: only partially abrogated”. In experiment [2], the “IFN-γ-induced increase in mRNA encoding cathepsin B, cathepsin S and MMPs-2 and -14” value is listed as “markedly ameliorated”; the “levels of mRNA encoding cathepsin H and MMPs-9 and -12” value is “not similarly altered”. For the same molecule, in the experiment on CC10-rtTA-IFN-γ mice [3], the “IFN-γ-induced BAL total cell, neutrophil, lymphocyte and macrophage alterations and tissue inflammation” value is listed as “markedly ameliorated”. In addition, in the experiment on IFN-γ-induced apoptosis (Z-VAD-fmk 3 μg/kg/day I.P. vs vehicle control), the “decrease of the levels of IFN-γ-induced apoptosis” value is not below 85%.
On to `CC[C@H](NC(=O)[C@H](CS(=O)(=O)CC(C)C)NC(=O)N1CCOCC1)C(=O)c1nc2ccccc2o1` [compound 14150], for which the “effect on IFN-γ-induced emphysema (lung volume, chord length, histology, compliance; in words)” value in the experiment with CC10-rtTA-IFN-γ mice [1] is “significant decreases; also recorded: significantly inhibited”. Also, in the experiment with IFN-γ-induced apoptosis, the “effect on IFN-γ-induced apoptosis (in words)” value is reported as “significant decreases; also recorded: significantly inhibited”.
As for `CC(=O)N[C@@H](CC(C)C)C(=O)N[C@@H](CC(C)C)C(=O)N[C@H](C=O)CCCNC(=N)N` [leupeptin], in experiment [2], the “IFN-γ-induced increase in mRNA encoding cathepsin B, cathepsin S and MMPs-2 and -14” value is “decreased”; the “MMP-9 mRNA induction by IFN-γ” value is given as “leupeptin-dependent”.
For `CCCNC(=O)[C@H]1O[C@@H]1C(=O)N[C@H](C(=O)N1CCC[C@H]1C(=O)O)[C@@H](C)CC` (relative stereo) [CA074, N-(L-3-trans-propylcarbamoyl-oxirane-2-carbonyl)-L-isoleucyl-L-proline], the “effect on IFN-γ-induced emphysema (lung volume, chord length, histology, compliance; in words)” value in the experiment on CC10-rtTA-IFN-γ mice [1] is listed as “significant decreases”. Moreover, the “effect on IFN-γ-induced apoptosis (in words)” value with IFN-γ-induced apoptosis is on record as “significant decreases”.

For the origin of these results see patent US20060074066A1, “Use of an inhibitor of cathepsin-S or -B to treat or prevent chronic obstructive pulmonary disease” (Yale University, priority 2003, published 2006).
